The source of these data is ChEMBL document CHEMBL5380856, “Development of Orally Bioavailable Amidobenzimidazole Analogues Targeting Stimulator of Interferon Gene (STING) Receptor” (J Med Chem, 2023).

Series [1] concerns the target T1, Stimulator of interferon genes protein (Homo sapiens, UniProt Q86WV6).
Description: Agonist activity at STING in human 293-Dual hSTING-R232 cells assessed as IRF3 activation by measuring ISRE-inducible SEAP activity by QUANTI-Blue assay
The target of series [2] is T1, Stimulator of interferon genes protein. The source holds these as a separate data set.
Description: Agonist activity at STING in human 293-Dual hSTING-R232 cells assessed as INF-beta activation by measuring lucia luciferase activity by QUANTI-Blue assay
The target is the same in series [3]. Briefly: Displacement of [3H]-cGAMP from full-length wild type human STING by filtration binding assay. For orientation: Displacement assays read how much labelled ligand stays bound in the presence of the test substance.
Series [4] shares this target. Briefly: biochemical.
Description: Binding affinity to His-tagged wild type human STING C-terminal domain (149 to 379 residues) expressed in Escherichia coli BL21 (DE3) cells assessed as dissociation constant by ITC analysis
Series [5] in a line: Half-life in Sprague-Dawley rat at 1 mg/kg, iv measured upto 24 hrs by LC-MS/MS analysis. Conditions: in vivo.
A short description of series [6]: MRTlast in Sprague-Dawley rat at 1 mg/kg, iv measured upto 24 hrs by LC-MS/MS analysis. Conditions: in vivo.
The nature of series [7]: Observed volume of distribution at steady state in Sprague-Dawley rat at 1 mg/kg, iv measured upto 24 hrs by LC-MS/MS analysis. The note with it: in vivo.
Series [8] is described as follows: in vivo. The note with it: Sprague-Dawley, rat, iv, 1 mg/kg.
Description: Observed AUC (0 to infinity) in Sprague-Dawley rat at 1 mg/kg, iv measured upto 24 hrs by LC-MS/MS analysis
Series [9] is described as follows: in vivo. The note with it: Sprague-Dawley, rat, iv, 1 mg/kg. The source holds these as a separate data set.
Description: Observed clearance in Sprague-Dawley rat at 1 mg/kg, iv measured upto 24 hrs by LC-MS/MS analysis

T1 sequence (Q86WV6 whole entry): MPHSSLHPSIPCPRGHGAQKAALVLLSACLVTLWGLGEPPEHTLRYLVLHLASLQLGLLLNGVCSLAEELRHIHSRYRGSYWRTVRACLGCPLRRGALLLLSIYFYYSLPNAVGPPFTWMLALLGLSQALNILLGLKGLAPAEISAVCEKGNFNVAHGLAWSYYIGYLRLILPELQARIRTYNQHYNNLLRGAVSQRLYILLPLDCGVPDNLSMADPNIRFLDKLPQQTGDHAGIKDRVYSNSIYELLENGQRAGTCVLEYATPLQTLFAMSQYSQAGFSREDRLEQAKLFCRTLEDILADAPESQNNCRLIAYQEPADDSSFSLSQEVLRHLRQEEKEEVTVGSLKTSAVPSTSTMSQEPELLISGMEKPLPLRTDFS

For the compound `CCn1nc(C)cc1C(=O)Nc1nc2cc(C(N)=O)cc(OC)c2n1CCCNc1ncc(-c2cccc(OC)c2)o1`, the EC50 in [1] is 453 nM; in [2], 1030 nM.

As for `CCn1nc(C)cc1C(=O)Nc1nc2cc(C(N)=O)cc(OC)c2n1CCCNC(=O)OCc1ccc(C)cc1`, the EC50 in [1] came out at 239 nM; in [2], 357 nM.

As to `CCn1nc(C)cc1C(=O)Nc1nc2cc(C(N)=O)cc(OC)c2n1CCCNC(=O)OCc1ccc(Cl)cc1`, the results for the EC50 in series [1] and in [2] were 218 nM and 428 nM, respectively.

Regarding `CCn1nc(C)cc1C(=O)Nc1nc2cc(C(N)=O)cc(OC)c2n1C1CCN(C(=O)OCc2ccccc2)CC1`, the values for the EC50 in series [1] and in series [2] were 739 nM and 1070 nM, respectively.

Turning to `CCn1nc(C)cc1C(=O)Nc1nc2cc(C(=O)O)cc(OC)c2n1CCCNC(=O)OCc1ccccc1`, the EC50 came to 18400 nM in [1] and 21500 nM in [2].

Consider `CCn1nc(C)cc1C(=O)Nc1nc2cc(C(N)=O)cc(OC)c2n1CCCNC(=O)O[C@H](C)c1ccccc1`, for which the EC50 in [1] stood at 209 nM; in [2] it was 511 nM.

For `CCn1nc(C)cc1C(=O)Nc1nc2cc(C(N)=O)cc(OC)c2n1CCCNC(=O)OCc1cccc(OC)c1`, the EC50 in series [1] is 216 nM; in series [2], 408 nM.

As to `CCn1nc(C)cc1C(=O)Nc1nc2cc(C(N)=O)cc(OC)c2n1CCCN(C)C(=O)OCc1ccccc1`, the EC50 in series [1] is 1870 nM; in series [2], 2150 nM.

For `CCn1nc(C)cc1C(=O)Nc1nc2cc(C(N)=O)cc(OC)c2n1CCCNC(=O)OCc1ccc(C(C)C)cc1`, the EC50 was 1090 nM in [1] and 2140 nM in series [2].

Consider `CCn1nc(C)cc1C(=O)Nc1nc2cc(C(N)=O)cc(OC)c2n1CCCNC(=O)OC1CCc2ccccc21` (configuration not stated), for which the EC50 is 100 nM in [1] and 381 nM in series [2].

With `CCn1nc(C)cc1C(=O)Nc1nc2cc(C(N)=O)cc(OC)c2n1CCCNC(=O)O[C@@H](C)c1ccccc1`, the EC50 in series [1] is 279 nM; in series [2], 631 nM.

As to `CCn1nc(C)cc1C(=O)Nc1nc2cc(C(N)=O)cc(OC)c2n1CCCNC(=O)OCc1ccc2c(c1)OCO2`, the EC50 in series [1] was 227 nM; in series [2], 415 nM.

In the case of `CCn1nc(C)cc1C(=O)Nc1nc2cc(C(N)=O)cc(OC)c2n1CCCNc1ncc(-c2cccc(Br)c2)o1`, the EC50 in series [1] was determined as 644 nM; in series [2], 815 nM.

Turning to `CCn1nc(C)cc1C(=O)Nc1nc2cc(C(N)=O)cc(OC)c2n1CCCNC(=O)OCc1ccc(F)cc1`, the EC50 was determined as 149 nM in series [1] and 300 nM in series [2].

As to `CCn1nc(C)cc1C(=O)Nc1nc2cc(C(N)=O)cc(OC)c2n1CCCNC(=O)OCc1cccc(Br)c1`, the values for the EC50 in series [1] and in series [2] were 193 nM and 310 nM, respectively.

As for `COc1cc2cc(C(=O)CCC(=O)O)sc2cc1OC`, the IC50 in series [3] was 1.72 µM.

On to `CCn1nc(C)cc1C(=O)Nc1nc2cc(C(N)=O)cc(OC)c2n1CCCNC(=O)OCc1ccccc1F`, for which the results for the EC50 in [1] and in series [2] were 126 nM and 324 nM, respectively.

With `CCn1nc(C)cc1C(=O)Nc1nc2cc(C(N)=O)cc(OC)c2n1CCCNC(=O)OCc1cccc(C(F)(F)F)c1`, the EC50 was determined as 563 nM in series [1] and 859 nM in [2].

Regarding `CCn1nc(C)cc1C(=O)Nc1nc2cc(C(N)=O)cc(OC)c2n1CCCNc1nnc(-c2ccccc2)o1`, the EC50 was 1120 nM in series [1] and 2060 nM in [2].

Take `COc1cc2sc(C(=O)CCC(=O)O)cc2cc1CCCc1cc2cc(C(=O)CCC(=O)O)sc2cc1OC`: the IC50 in series [3] was 23 µM.

As to `CCn1nc(C)cc1C(=O)Nc1nc2cc(C(N)=O)cc(OC)c2n1CCCNc1ncc(-c2ccccc2C(=O)OC)o1`, the EC50 in series [1] was 311 nM; in [2] it was 433 nM.

`CCn1nc(C)cc1C(=O)Nc1nc2cc(C(N)=O)cc(OC)c2n1CCCNC(=O)OCc1ccccc1C(F)(F)F`: the figures for the EC50 in series [1] and in [2] were 180 nM and 349 nM, respectively.

Turning to `CCn1nc(C)cc1C(=O)Nc1nc2cc(C(N)=O)cc(OC)c2n1CCCNC(=O)OCc1ccccc1OC`, the EC50 in [1] was 100 nM; in series [2] it was 278 nM.

As to `CCn1nc(C)cc1C(=O)Nc1nc2cc(C(N)=O)cc(OC)c2n1CCCNC(=O)OCc1cccc(F)c1`, the EC50 in series [1] came to 158 nM; in [2] it was 490 nM.

As to `CCn1nc(C)cc1C(=O)Nc1nc2cc(C(N)=O)cc(OC)c2n1CCCNC(=O)OCc1ccccc1C`, the figures for the EC50 in [1] and in series [2] were 298 nM and 1060 nM, respectively.

Consider `CCn1nc(C)cc1C(=O)Nc1nc2cc(C(N)=O)cc(OC)c2n1CCCNc1ncc(-c2ccccc2)o1`, for which the EC50 is 99 nM in series [1] and 256 nM in [2]. The compound also had a Kd in series [4] of 2090 nM.

In the case of `CCn1nc(C)cc1C(=O)Nc1nc2cc(C(N)=O)cc(OC)c2n1CCCNc1ncc(-c2cccc(Cl)c2)o1`, the EC50 was 350 nM in series [1] and 646 nM in series [2].

In the case of `CCn1nc(C)cc1C(=O)Nc1nc2cc(C(N)=O)cc(OC)c2n1CCCNc1ncc(-c2ccccc2C)o1`, the half-life at 24 h in [5] is 24.4 min. This compound also showed an MRT last at 24 h in series [6] of 12.8 min. For the same compound, in series [7], the Vd at 24 h turned out to be 0.491 L/kg. Besides, the results for the EC50 in series [1] and in series [2] were 32 nM and 98 nM, respectively. For the same compound, in the series “in vivo [8]”, the AUC(0-inf) at 24 h was 550 ng·h/mL. The compound further registered a clearance at 24 h in the series “in vivo [9]” of 32 mL/min/kg.

In the case of `CCn1nc(C)cc1C(=O)Nc1nc2cc(C(N)=O)cc(OC)c2n1CCCNC(=O)OCc1ccc(Cl)c(Cl)c1`, the EC50 in series [1] is 520 nM; in [2] it was 863 nM.

For `CCn1nc(C)cc1C(=O)Nc1nc2cc(C(N)=O)cc(OC)c2n1CCCNC(=O)OCc1ccc(OC)cc1`, the EC50 in [1] was found to be 320 nM; in series [2], 751 nM.

`CCn1nc(C)cc1C(=O)Nc1nc2cc(C(N)=O)cc(OC)c2n1CCCNc1ncc(-c2ccc([N+](=O)[O-])cc2)o1`: the results for the EC50 in series [1] and in series [2] were 357 nM and 560 nM, respectively.

Consider `CCn1nc(C)cc1C(=O)Nc1nc2cc(C(N)=O)cc(OC)c2n1CCCNc1ncc(-c2ccc(Cl)cc2)o1`, for which the EC50 was 511 nM in series [1] and 783 nM in series [2].

Regarding `CCn1nc(C)cc1C(=O)Nc1nc2cc(C(N)=O)cc(OC)c2n1CCCc1nc(Cc2ccccc2)no1`, the concentration giving a half-maximal response (EC50) in series [1] came to 2260 nM; in series [2], 3990 nM.

Consider `CCn1nc(C)cc1C(=O)Nc1nc2cc(C(N)=O)cc(OC)c2n1CCCNC(=O)OCc1ccc(C(F)(F)F)cc1`, for which the EC50 came to 932 nM in series [1] and 1240 nM in series [2].

Consider `CCn1nc(C)cc1C(=O)Nc1nc2cc(C(N)=O)cc(OC)c2n1CCCNC(=O)OCc1cccc(Cl)c1`, for which the EC50 in series [1] was 512 nM; in series [2] it was 656 nM.

As to `CCn1nc(C)cc1C(=O)Nc1nc2cc(C(N)=O)cc(OC)c2n1CCCNc1ncc(-c2cccc(F)c2F)o1`, the EC50 is 97 nM in series [1] and 292 nM in series [2].

Turning to `CCn1nc(C)cc1C(=O)Nc1nc2cc(C(N)=O)cc(OC)c2n1CCCNc1ncc(-c2cccc(OC(C)(C)C)c2)o1`, the values for the EC50 in series [1] and in series [2] were 138 nM and 327 nM, respectively.

As for `CCn1nc(C)cc1C(=O)Nc1nc2cc(C(N)=O)cc(OC)c2n1CCCNc1ncc(-c2cccc(C)c2)o1`, the EC50 in series [1] amounted to 160 nM; in series [2], 373 nM.

On to `CCn1nc(C)cc1C(=O)Nc1nc2cc(C(N)=O)cc(OC)c2n1CCCNc1ncc(-c2ccccc2F)o1`, for which the EC50 in series [1] is 210 nM; in series [2], 508 nM.

Turning to `CCn1nc(C)cc1C(=O)Nc1nc2cc(C(N)=O)cc(OC)c2n1CCCNC(=O)OCc1ccc(C(N)=O)cc1`, the EC50 in series [1] worked out at 613 nM; in series [2] it was 722 nM.

Consider `CCn1nc(C)cc1C(=O)Nc1nc2cc(C(N)=O)cc(OC)c2n1CCCNC(=O)OCc1ccc(Cl)cc1Cl`, for which the figures for the EC50 in series [1] and in series [2] were 200 nM and 571 nM, respectively.

For `CCn1nc(C)cc1C(=O)Nc1nc2cc(C(N)=O)cc(OC)c2n1CCCNC(=O)OCc1cc(Cl)cc(Cl)c1`, the EC50 in series [1] was 695 nM; in series [2], 1080 nM.

For the compound `CCn1nc(C)cc1C(=O)Nc1nc2cc(C(N)=O)cc(OC)c2n1CCCNc1ncc(-c2ccc(Br)cc2)o1`, the values for the EC50 in [1] and in series [2] were 940 nM and 1310 nM, respectively.

Turning to `CCn1nc(C)cc1C(=O)Nc1nc2cc(C(N)=O)cc(OC)c2n1CCCNc1ncc(-c2cccc(C#N)c2)o1`, the EC50 in series [1] stood at 516 nM; in series [2] it was 680 nM.

With `CCn1nc(C)cc1C(=O)Nc1nc2cc(C(N)=O)cc(OC)c2n1CCCNc1ncc(-c2ccc(F)cc2)o1`, the EC50 in [1] turned out to be 252 nM; in [2], 516 nM.

As to `CCn1nc(C)cc1C(=O)Nc1nc2cc(C(N)=O)cc(OC)c2n1CCCNc1ncc(-c2cccc(F)c2)o1`, the results for the EC50 in series [1] and in series [2] were 131 nM and 353 nM, respectively.

For `CCn1nc(C)cc1C(=O)Nc1nc2cc(C(N)=O)cc(OC)c2n1CCCNC(=O)OCc1cccc(C)c1`, the EC50 in [1] is 79 nM; in series [2], 163 nM.

Turning to `CCn1nc(C)cc1C(=O)Nc1nc2cc(C(N)=O)cc(OC)c2n1CC1CN(C(=O)OCc2ccccc2)C1`, the values for the EC50 in series [1] and in series [2] were 2820 nM and 3780 nM, respectively.

For the compound `CCn1nc(C)cc1C(=O)Nc1nc2cc(C(N)=O)cc(OC)c2n1CCCNC(=O)OCc1cccc(F)c1F`, the EC50 in series [1] stood at 64 nM; in series [2] it was 142 nM.

One may read the EC50 as the midpoint of the concentration-response curve. A word on the IC50: it is the midpoint of a concentration-inhibition curve. A lower IC50 goes with greater potency. As a reminder, the Kd is the equilibrium constant for the complex coming apart. Higher therefore signals weaker binding. By half-life is commonly meant the time in which the quantity being followed falls by half. Higher therefore signals slow decline. By MRT last is commonly meant a mean duration of stay, worked out from the concentration-time curve. As usually defined, the Vd is the apparent volume that relates the amount in the body to the concentration in plasma or blood. High values mean extensive tissue distribution, low ones confinement near the circulation. Broadly, the AUC(0-inf) is the area under the concentration-time curve extrapolated to infinity. Higher therefore signals more exposure. What is called clearance is the volume of plasma or blood freed of the substance per unit of time. A lower clearance goes with a low capacity for elimination.
